From article PMC3937006, “Synergism of peptide receptor-targeted Auger electron radiation therapy with anti-angiogenic compounds in a mouse model of neuroendocrine tumors” (EJNMMI Research, 2014)

Columns and labels:
[1] = tested on: CD31-positive blood vessels in tumors of Rip1Tag2 mice; assay: Microvessel density, CD31 immunohistochemistry on tumor sections; type: in vivo, mouse; details: for microvessel density, CD31-positive blood vessels (median): Rip1Tag2 mice after 7-day therapy, radiopeptide 1.1 MBq, natIn-exendin-4 40 pmol, kinase inhibitor 100 mg/kg p.o.
[2] = tested on: pancreatic tumors and other organs of Rip1Tag2 mice; type: in vivo, mouse
Experimental: Male and female Rip1Tag2 mice, 19 to 32 g of weight and 11.6 ± 0.7 weeks old, were stratified according to their age and randomly assigned to the different cohorts. […] Both vatalanib and imatinib were provided by Novartis (Basel, Switzerland). Days (0, 3, 5, and 7 days) after the beginning of vatalanib or imatinib treatment, the mice were injected through the tail vein with 185 kBq (10 ng peptide/2 pmol) [Lys^40(Ahx-DTPA-^111In)NH2]-exendin-4 (^111In-DTPA-exendin-4) in a 100-μl 1% human serum albumin solution diluted in 0.9% NaCl. At 4 h after injection, the mice were sacrificed under isoflurane and CO2 anesthesia. The organs, blood, and tumors were collected, weighed, and the radioactivity in these samples was determined using a γ-counter. The percentage of injected activity (IA)/g tissue was calculated for each tissue.

[3] = tested on: pancreatic neuroendocrine tumors (pNET) of Rip1Tag2 mice; assay: Therapy study, tumor volume in Rip1Tag2 mice; details: day 8, radiopeptide 1.1 MBq i.v. once, kinase inhibitor 100 mg/kg p.o. daily for 7 days
[4] = tested on: tumor β-cells of Rip1Tag2 mice; assay: Tumor cell apoptosis, TUNEL assay; type: in vivo, mouse; details: Rip1Tag2 mice after 7-day therapy, vatalanib study
GLP-1R = assay: GLP-1 receptor autoradiography of tumors after vatalanib treatment; type: in vivo, mouse; details: Rip1Tag2 mice, vatalanib 100 mg/kg p.o. for 4 days, n = 4; 32 pM [125I]-GLP-1; p = 0.98 vs saline control
Experimental: GLP-1 receptor autoradiography was used to quantify the GLP-1 receptors in the mouse tumors in the presence or absence of vatalanib treatment. The Rip1Tag2 mice were treated with vatalanib as described before for 4 days and sacrificed on day 5. During necropsy, the tumors were snap frozen on dry ice. Tumor sections (20-μm thick) were incubated for 2 h at ambient temperature in the presence of 32 pM [^125I]-GLP-1 (2,000 Ci/mmol). The incubation solution was 170 mM Tris-HCI buffer (pH 8.2) containing 1% bovine serum albumin, bacitracin (40 μg/ml) and MgCl2 (10 mM) to inhibit endogenous proteases. Non-specific binding was determined by adding 100-nM solution of unlabeled GLP-1. The incubated sections were washed twice for 5 min in cold incubation buffer containing 0.25% bovine serum albumin, then in buffer alone, and dried quickly. Finally, the sections were apposed to Biomax MR films (Kodak, Rochester, NY, USA) and exposed for 1 week in X-ray cassettes.
In all the experiments, the autoradiograms were quantified using a computer-assisted image processing system. Tissue standards for iodinated compounds were used for this purpose.

[5] = tested on: pancreas, lungs, bowel and kidneys of Rip1Tag2 and C57/Bl6 mice; details: dose of 28 MBq; cited from earlier work
Source text: (§1) We have shown in the Rip1Tag2 mouse model of pancreatic neuroendocrine tumors (pNET) that [Lys^40(Ahx-DTPA-^111In)NH2]-exendin-4 is suitable for molecular imaging of NETs using single-photon emission computed tomography (SPECT). pNETs could be detected down to a size of 1 mm in diameter. In a clinical pilot study, we could localize occult insulinomas that were not detectable using conventional imaging methods.

[6] = tested on: pancreatic neuroendocrine tumors (pNET) of Rip1Tag2 mice; details: injection of 28 MBq; cited from earlier work
Source text: as §1

[7] = tested on: pancreatic tumors and other organs of Rip1Tag2 mice; details: mouse, in vivo; cited from earlier work
Source text: Thus, the combination with an anti-angiogenic drug that has a different toxicity profile than the radiopeptide reduces the amount of [Lys^40(Ahx-DTPA-^111In)NH2]-exendin-4 and is a more nephroprotective treatment. This is relevant because kidney ...

[8] = tested on: GLP-1 receptor-expressing tumor cells established from pancreatic tumors of Rip1Tag2 mice; type: cell-based, mouse
Experimental: A nuclei isolation kit (Nuclei EZ Prep Kit, Sigma-Aldrich Chemie Gmbh, Steinheim, Germany) was used to separate and quantify the amount of radioactivity stored in the nuclei. The preparation was done according to the manufacturer's instructions. The GLP-1 receptor-expressing tumor cells were established from pancreatic tumors of Rip1Tag2 mice, as described previously. The cells were seeded at a density of 2 × 10^7 cells in Petri dishes and incubated overnight. Afterward, 25 pmol ^111In-DTPA-exendin-4 (2.5 MBq) was added to the Petri dishes and incubated at 37°C. The internalization was stopped at 2, 4, and 24 h by removing the medium and by washing the cells four times with 5-ml ice-cold phosphate-buffered saline. Ice-cold nuclei EZ lysis buffer (2 ml) was added, and the cells were scraped with a small bladed cell scraper. The cell lysate was transferred to a separate 15-ml centrifuge tube and set on ice for 5 min. To collect the nuclei, the cell lysate was centrifuged three times at 500 g for 5 min at 4°C. The culture medium, the clear supernatant (cytoplasmatic supernatant), and nucleus pellets were measured radiometrically with a γ-counter.

Row | Molecule | effect on tumor-associated vessels ([1]; imatinib 100 mg/kg p.o. for 7 days) | effect of pre-treatment on uptake of the radiopeptide ([2]; imatinib 100 mg/kg p.o. daily, independent of organ or time point (0, 3, 5, 7 days)) | microvessel density, CD31-positive blood vessels (median) [1] | tumor volume treated/volume control (T/C) ratio [3] | number of apoptotic cells/0.1 mm^2 (median) [4] | effect on radiopeptide uptake in all the other organs ([2]; vatalanib 100 mg/kg p.o. daily up to 7 days) | reduction of radiopeptide uptake in the kidney ([2]; vatalanib 100 mg/kg p.o. daily, within 7 days, p < 0.001) | decrease of specific tumor uptake of radiopeptide ([2]; within the first 5 days of vatalanib treatment) | expression of the GLP-1R on pancreatic tumors by autoradiography (GLP-1R) | renal toxicity [5] | reduction of the tumor mass [6] | tumor uptake [7] | internalized activity accumulated in the nucleus [8]
1 | Cc1ccc(NC(=O)c2ccc(CN3CCN(C)CC3)cc2)cc1Nc1nccc(-c2cccnc2)n1 [imatinib] | no apparent effect | did not affect the uptake |  |  |  |  |  |  |  |  |  |  | 
2 | Clc1ccc(Nc2nnc(Cc3ccncc3)c3ccccc23)cc1 [vatalanib] |  |  | 28 /mm^2 | 0.26 | 1.7 cells/0.1 mm^2 | unaffected | 29.5% | more than 50% | 14,176 ± 5,958 dgm/min |  |  |  | 
3 | [Lys^40(Ahx-DTPA-^111In)NH2]-exendin-4 |  |  | 77 /mm^2 |  |  |  |  |  |  | significant renal radiation damage and consequent chronic renal failure | 94% | 287 ± 62 % IA/g tumor | less than 5%
